Results taken from US11053281B2, “Peptoid affinity ligands” (MIKE-ANN, LLC, priority 2016, dated 2021).
Read-outs that look alike come from different tables or passages of the source. *1 amine or outer side, *2 acyl side, *3 side chain or, on linkers, in order; H or OH if unused. Where a SMILES comes first, the peptide text is derived from it. [ ]: non-standard residue; d: D form. Gly(N(CH2)2(3-indolyl)) = O=C(O)CNCCc1c[nH]c2ccccc12; Gly(N-(CH2)3-guanidino) = N=C(N)NCCCNCC(=O)O; NGly(CH2(3-pyridyl)) = O=C(O)CNCc1cccnc1; N(CH2CH2COOH)Gly = O=C(O)CCNCC(=O)O; Gly(N(CH2)3NH2) = NCCCNCC(=O)O; Cysteamide = C(CS[*:3])N[*:1]; NPrGly = CCCNCC(=O)O; Sar = CNCC(=O)O

System: polyclonal human IgG
Assay: Adsorption isotherm of peptoid affinity resins against polyclonal human IgG
Format: binding
Parameters: Qmax: unit not given here
Conditions: for Qmax: maximum capacity (qmax) of resin from isotherm fit; for Kd: peptoid ligand conjugated to chromatographic resin, IgG in PBS, hyperbola fit of isotherm, Kd given in molar, read-out: Kd x 10^−6
Procedure: The affinity for the peptoid-resin combinations was determined by measuring the adsorption isotherm of each resin against polyclonal human IgG (Pakimna et al., J Applied Sci., 12(11): 1136-1141, 2012). Briefly, 0.050 mL of 50% resin slurry was pipetted into 6 individual wells of a 96-well filter plate (0.45 micron, PVDF, Harvard Apparatus). The resin was washed with 2×250 μL PBS using a vacuum manifold. To an individual well, 0.25 mL of a human polyclonal IgG solution at different concentrations (10, 5, 2.5, 1.25, 0.625, and 0.3125 mg/mL) was added. The resin/IgG suspension was agitated gently on a rocking table for 30 minutes. The fluid was then collected via vacuum, and the resin was washed with 0.25 mL of PBS. The filtrate and wash were then analyzed by the BCA assay to determine the residual IgG concentration relative to the starting concentration of the solution.
The equilibrium concentrations were then used to determine the capacity of the resin at each IgG concentration using the following formula: q=Volumesample×(Initial Concentration−Equilibrium Concentration)/Volumeresin
A plot of q versus equilibrium concentration was generated and the data fit with a hyperbola to determine the affinity constant (Kd) and the maximum capacity (qmax) according to the below formula, where C=the equilibrium concentration of antibody in solution: q=qmax×C/(kd+C) Typical adsorption isotherm is shown in FIG. 2. Tabulated Kd and qmax data is found in Table 2.

Kd (Table 3) [µM]	Kd (Table 2) [µM]	SMILES	Qmax (Table 3)	Qmax (Table 2)
6	–	CCCN(CC(=O)N(CCc1c[nH]c2ccccc12)CC(=O)NCCS)C(=O)CN(CCc1c[nH]c2ccccc12)C(=O)CN(C)C(=O)CN(CCC(=O)O)C(=O)CN(Cc1cccnc1)C(=O)CNCCCN [Ligand 15-91-4] (H-[Gly(N(CH2)3NH2)][NGly(CH2(3-pyridyl))][N(CH2CH2COOH)Gly][Sar][Gly(N(CH2)2(3-indolyl))][NPrGly][Gly(N(CH2)2(3-indolyl))]-Cysteamide)	32	–
–	2.6	CCCN(CC(=O)N(CCc1c[nH]c2ccccc12)CC(=O)NCCS)C(=O)CN(CCc1c[nH]c2ccccc12)C(=O)CN(C)C(=O)CN(Cc1cccnc1)C(=O)CN(CCc1c[nH]c2ccccc12)C(=O)CNCCCNC(=N)N [Ligand 18-28-6] (H-[Gly(N-(CH2)3-guanidino)][Gly(N(CH2)2(3-indolyl))][NGly(CH2(3-pyridyl))][Sar][Gly(N(CH2)2(3-indolyl))][NPrGly][Gly(N(CH2)2(3-indolyl))]-Cysteamide)	–	42
–	10	CN(CC(=O)NCCS)C(=O)CN(CCC(=O)O)C(=O)CN(Cc1cccnc1)C(=O)CN(CCCNC(=N)N)C(=O)CN(CCC(=O)O)C(=O)CN(CCc1c[nH]c2ccccc12)C(=O)CNCc1cccnc1 [Ligand 18-28-9] (H-[NGly(CH2(3-pyridyl))][Gly(N(CH2)2(3-indolyl))][N(CH2CH2COOH)Gly][Gly(N-(CH2)3-guanidino)][NGly(CH2(3-pyridyl))][N(CH2CH2COOH)Gly][Sar]-Cysteamide)	–	41
3.2	–	CCCN(CC(=O)N(C)CC(=O)N(CCc1c[nH]c2ccccc12)CC(=O)N(CCC)CC(=O)N(CCc1c[nH]c2ccccc12)CC(=O)NCCS)C(=O)CN(CCCNC(=N)N)C(=O)CNCCc1c[nH]c2ccccc12 [Ligand 12-76-3] (H-[Gly(N(CH2)2(3-indolyl))][Gly(N-(CH2)3-guanidino)][NPrGly][Sar][Gly(N(CH2)2(3-indolyl))][NPrGly][Gly(N(CH2)2(3-indolyl))]-Cysteamide)	87	–
–	2.5	NCCCNCC(=O)N(CC(=O)N(CCc1c[nH]c2ccccc12)CC(=O)N(CCc1c[nH]c2ccccc12)CC(=O)NCCS)Cc1cccnc1 [Ligand 16-82-3] (H-[Gly(N(CH2)3NH2)][NGly(CH2(3-pyridyl))][Gly(N(CH2)2(3-indolyl))][Gly(N(CH2)2(3-indolyl))]-Cysteamide)	–	47
